For experiment [1], the target named is Coagulation factor X (Homo sapiens) (UniProt P00742). The experiment can be described thus: In vitro inhibition of human coagulation factor X.
Experiment [2] has as its target Plasminogen (Homo sapiens) (UniProt P00747). Put plainly: Inhibitory activity against plasmin at pH 8.2.
The target of experiment [3] is Coagulation factor X (Homo sapiens) (UniProt P00742). The experiment can be described thus: Inhibitory activity against serine protease Coagulation factor X at pH 8.2.
Experiment [4] concerns the target T1, Coagulation factor VII (Homo sapiens) (UniProt P08709).
T1 sequence (whole entry): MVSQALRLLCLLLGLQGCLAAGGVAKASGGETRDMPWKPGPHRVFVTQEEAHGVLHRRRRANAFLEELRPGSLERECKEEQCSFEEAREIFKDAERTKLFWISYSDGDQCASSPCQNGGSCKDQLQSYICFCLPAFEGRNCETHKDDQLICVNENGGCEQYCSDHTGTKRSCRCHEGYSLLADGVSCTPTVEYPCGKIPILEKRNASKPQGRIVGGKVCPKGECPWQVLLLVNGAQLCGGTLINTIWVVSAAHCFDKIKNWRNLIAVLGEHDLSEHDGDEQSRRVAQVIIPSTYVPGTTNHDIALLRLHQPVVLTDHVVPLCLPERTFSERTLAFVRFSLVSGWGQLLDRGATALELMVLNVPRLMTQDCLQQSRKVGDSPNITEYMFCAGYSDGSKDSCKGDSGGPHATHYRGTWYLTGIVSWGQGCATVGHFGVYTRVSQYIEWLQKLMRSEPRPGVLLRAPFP
Put plainly: Inhibitory activity against Coagulation factor VII at pH 8.2.

The target of experiment [5] is Serine protease 1 (Homo sapiens) (UniProt P07477). Put plainly: Inhibitory activity against trypsin at pH 8.2.
The target of experiment [6] is Coagulation factor X (Homo sapiens) (UniProt P00742). Put plainly: Inhibitory activity against serine protease Coagulation factor X at pH 7.4.
For experiment [7], the target named is Prothrombin (Homo sapiens) (UniProt P00734). Put plainly: Inhibitory activity against thrombin at pH 8.2.
In experiment [8] the target is Urokinase-type plasminogen activator (Homo sapiens) (UniProt P00749). The experiment can be described thus: Inhibitory activity against urokinase-type plasminogen activator (microPa) at pH 8.2.
The target of experiment [9] is Vitamin K-dependent protein C (Homo sapiens) (UniProt P04070). The experiment can be described thus: Inhibitory activity against Activated protein C at pH 8.2.
The target of experiment [10] is Tissue-type plasminogen activator (Homo sapiens) (UniProt P00750). The experiment can be described thus: Inhibitory activity against tissue plasminogen activator (tissue plasminogen activator) at pH 8.2.

The text below walks through data of ChEMBL document CHEMBL1134133, “Neutral inhibitors of the serine protease factor Xa” (Bioorg Med Chem Lett, 2001).

Sequence of Coagulation factor X (Homo sapiens) (P00742 41-179 limits assumed): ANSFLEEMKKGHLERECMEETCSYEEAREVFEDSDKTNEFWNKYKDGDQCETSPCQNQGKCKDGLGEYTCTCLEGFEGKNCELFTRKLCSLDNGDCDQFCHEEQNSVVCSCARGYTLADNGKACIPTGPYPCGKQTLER
Sequence of Coagulation factor X (Homo sapiens) (P00742 235-488 limits assumed): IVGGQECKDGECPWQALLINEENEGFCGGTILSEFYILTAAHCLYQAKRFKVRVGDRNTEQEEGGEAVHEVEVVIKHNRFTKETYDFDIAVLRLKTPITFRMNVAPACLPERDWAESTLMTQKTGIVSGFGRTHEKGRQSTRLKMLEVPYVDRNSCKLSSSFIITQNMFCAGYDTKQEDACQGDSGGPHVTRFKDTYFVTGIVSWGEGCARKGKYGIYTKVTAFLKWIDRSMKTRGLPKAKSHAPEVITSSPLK
Sequence of Vitamin K-dependent protein C (Homo sapiens) (P04070 43-197 limits assumed): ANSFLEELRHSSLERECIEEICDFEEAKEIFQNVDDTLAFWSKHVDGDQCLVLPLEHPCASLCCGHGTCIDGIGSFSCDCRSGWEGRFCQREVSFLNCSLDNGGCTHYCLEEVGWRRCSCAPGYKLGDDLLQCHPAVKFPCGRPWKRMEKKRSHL
Sequence of Vitamin K-dependent protein C (Homo sapiens) (P04070 212-461 limits assumed): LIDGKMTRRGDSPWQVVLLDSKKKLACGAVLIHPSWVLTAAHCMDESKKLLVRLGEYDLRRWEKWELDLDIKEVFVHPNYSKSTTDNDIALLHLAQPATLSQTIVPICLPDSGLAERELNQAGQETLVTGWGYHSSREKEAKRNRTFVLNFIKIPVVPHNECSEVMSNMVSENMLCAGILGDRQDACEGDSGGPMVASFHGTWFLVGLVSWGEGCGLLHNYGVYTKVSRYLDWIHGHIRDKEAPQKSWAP
Sequence of Tissue-type plasminogen activator (Homo sapiens) (P00750 36-562 limits assumed): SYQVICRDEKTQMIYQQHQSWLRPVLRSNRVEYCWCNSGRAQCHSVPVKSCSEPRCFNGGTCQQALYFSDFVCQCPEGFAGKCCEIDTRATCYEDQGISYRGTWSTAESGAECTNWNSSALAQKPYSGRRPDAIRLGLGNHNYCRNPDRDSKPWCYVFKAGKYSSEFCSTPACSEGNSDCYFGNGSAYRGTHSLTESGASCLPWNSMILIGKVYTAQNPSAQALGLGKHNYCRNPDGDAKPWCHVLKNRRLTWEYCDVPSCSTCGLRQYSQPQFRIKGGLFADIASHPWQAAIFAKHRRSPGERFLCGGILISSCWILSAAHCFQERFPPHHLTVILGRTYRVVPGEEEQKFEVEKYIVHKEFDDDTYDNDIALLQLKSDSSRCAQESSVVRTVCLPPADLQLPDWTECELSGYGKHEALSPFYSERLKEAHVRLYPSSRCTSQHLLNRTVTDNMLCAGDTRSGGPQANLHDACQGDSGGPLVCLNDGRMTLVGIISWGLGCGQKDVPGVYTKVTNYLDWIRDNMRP
Sequence of Plasminogen (Homo sapiens) (P00747 whole entry, looked up): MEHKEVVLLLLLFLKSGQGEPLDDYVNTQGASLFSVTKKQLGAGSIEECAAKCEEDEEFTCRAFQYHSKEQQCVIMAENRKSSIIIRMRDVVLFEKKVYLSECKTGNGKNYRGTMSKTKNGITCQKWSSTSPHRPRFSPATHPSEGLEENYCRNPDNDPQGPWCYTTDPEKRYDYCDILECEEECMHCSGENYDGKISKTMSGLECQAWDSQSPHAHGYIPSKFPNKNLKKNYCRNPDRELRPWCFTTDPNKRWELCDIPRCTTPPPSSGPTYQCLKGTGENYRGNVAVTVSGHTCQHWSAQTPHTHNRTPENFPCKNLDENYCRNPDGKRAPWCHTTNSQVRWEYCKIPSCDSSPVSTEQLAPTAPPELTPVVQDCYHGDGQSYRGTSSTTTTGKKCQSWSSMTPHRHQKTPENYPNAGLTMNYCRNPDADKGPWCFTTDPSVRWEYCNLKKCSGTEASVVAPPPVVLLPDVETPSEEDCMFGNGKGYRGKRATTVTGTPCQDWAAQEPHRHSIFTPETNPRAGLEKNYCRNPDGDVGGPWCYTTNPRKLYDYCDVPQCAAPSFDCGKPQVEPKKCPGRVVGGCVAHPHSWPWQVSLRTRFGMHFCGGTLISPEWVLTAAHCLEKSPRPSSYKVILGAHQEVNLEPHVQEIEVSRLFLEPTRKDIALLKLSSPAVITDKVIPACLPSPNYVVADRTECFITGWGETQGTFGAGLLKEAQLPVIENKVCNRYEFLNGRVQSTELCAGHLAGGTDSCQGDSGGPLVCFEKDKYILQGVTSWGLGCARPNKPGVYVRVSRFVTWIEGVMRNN
Sequence of Serine protease 1 (Homo sapiens) (P07477 whole entry): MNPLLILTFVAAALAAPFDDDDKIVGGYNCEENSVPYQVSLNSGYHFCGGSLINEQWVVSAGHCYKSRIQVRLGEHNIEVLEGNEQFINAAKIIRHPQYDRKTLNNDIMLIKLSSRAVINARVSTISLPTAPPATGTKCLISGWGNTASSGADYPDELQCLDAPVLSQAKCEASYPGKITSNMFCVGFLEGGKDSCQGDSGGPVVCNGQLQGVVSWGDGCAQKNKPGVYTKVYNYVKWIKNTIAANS

`COc1ccc(NC(=O)c2cc(C)ccc2NC(=O)c2sc3ccccc3c2Cl)cc1` returned a Ki' in experiment [1] of 2.1 µM.
In experiment [1], `Cc1ccc(NC(=O)c2sc3ccccc3c2Cl)c(C(=O)Nc2ccc(Cl)cc2)c1` yielded a Ki' of 0.21 µM.
The molecule `Cc1ccc(NC(=O)c2sc3ccccc3c2Cl)c(C(=O)Nc2ccc(N(C)C)cc2)c1` had a Ki' in [1] greater than 1200 µM.
Same read-out and setting: to `O=C(Nc1ccccc1C(=O)N1CCOCC1)c1sc2ccccc2c1Cl` belongs greater than 150 µM.
Molecule `Cc1ccc(NC(=O)c2sc3ccccc3c2Cl)c(C(=O)Nc2ccc3c(c2)OCO3)c1` came in with a Ki' in experiment [1] of 17.7 µM.
`Cc1ccc(NC(=O)c2cc3ccc(O)cc3s2)c(C(=O)Nc2ccc(F)cc2)c1`: the Ki' in [1] was found to be 10 µM.
`O=C(Nc1ccc(F)cc1)c1ccccc1NC(=O)c1sc2ccccc2c1Cl` returned a Ki' in [1] of 3.1 µM.
`Cc1ccc(NC(=O)c2sc3ccccc3c2Cl)c(C(=O)Nc2ccccc2Cl)c1`: in experiment [1], the Ki' was greater than 1200 µM.
In [1], `Cc1ccc(NC(=O)c2sc3ccccc3c2Cl)c(C(=O)Nc2ccc(N3CCOCC3)cc2)c1` showed a Ki' of 436 µM.
On to `Cc1ccc(NC(=O)c2sc3ccccc3c2Cl)c(C(=O)Nc2ccc(F)cc2)c1`, for which the Ki' in experiment [2] is greater than 150 µM; in experiment [3], 2.1 µM; in [4], greater than 900 µM; in experiment [5], greater than 150 µM; in [6], 0.042 µM; in experiment [7], 125 µM. Also, the Ki' in [1] is 0.57 µM; in experiment [8], greater than 150 µM; in experiment [9] it was greater than 150 µM; in experiment [10], greater than 150 µM.
Turning to `O=C(Nc1ccccn1)c1ccccc1NC(=O)c1sc2ccccc2c1Cl`, the Ki' in experiment [1] turned out to be 7.8 µM.
On the same count and under the same terms, to `Cc1ccc(NC(=O)c2cc3cc(O)ccc3s2)c(C(=O)Nc2ccc(F)cc2)c1` belongs 3.5 µM.
In turn, `O=C(O)c1cccc(NC(=O)c2ccccc2NC(=O)c2sc3ccccc3c2Cl)c1` gave a Ki' in experiment [1] greater than 150 µM.
In [1], `Cc1ccc(NC(=O)c2sc3ccccc3c2Cl)c(C(=O)N2CCNCC2)c1` returned a Ki' greater than 1200 µM.
On the same count and under the same terms, with `Cc1ccc(NC(=O)c2sc3ccccc3c2Cl)c(C(=O)Nc2ccncc2)c1` the figure was 22.1 µM; with `Cc1ccc(NC(=O)c2sc3ccccc3c2Cl)c(C(=O)Nc2ccc(O)cc2)c1`, 97 µM.
`O=C(O)c1ccc(NC(=O)c2ccccc2NC(=O)c2sc3ccccc3c2Cl)cc1`: in experiment [1], the Ki' is greater than 150 µM.
